Four molecules from patent US20100305159A1, “CRYSTALLINE FORM OF PIPERIDINE COMPOUND” (MITSUBISHI TANABE PHARMA CORPORATION, priority 2007, published 2010) can be followed below.

By IC50 is commonly meant the concentration that gives 50% inhibition. The Ki is a dissociation constant, usually derived from enzyme kinetics or from competition with a known ligand.

Data set [1] concerns the target T1, human neurokinin-1 receptor (Homo sapiens, UniProt P25103).
T1 construct: Human lymphoblastoma IM-9 cells (5 10^6 cell/tube) were reacted with 0.3 nM; endogenous in cells; host or cells: human lymphoblastoma IM-9 cells
The data set is described as follows: Neurokinin-1 (NK1) receptor binding inhibitory action, [3H](Sar9, Met11(O2)) Substance P on IM-9 cells. The text has this:
Measurements on the crystalline form of the present invention can be carried out, for example, according to the method described in European Journal of Pharmacology, vol. 254, pages 221-227 (1994) with respect to a neurokinin-1 receptor binding action, and according to the method described in European Journal of Pharmacology, vol. 265, pages 179-183 (1994) with respect to an action against a neurokinin-1 receptor […] inducing action, further according to the method described in Journal of Urology, vol.
Device: Dynamic Vapor Sorption device DVS-1 manufactured by Surface Measurement Systems, UK Amount of specimen: 10 mg Measured temperature: 25° C. Relative humidity range: 0 to 90% Experimental example 1 Neurokinin-1 (NK1) receptor binding inhibitory action Human lymphoblastoma IM-9 cells (5 10^6 cell/tube) were reacted with 0.3 nM [^3H] (Sar^9, Met^11 (O2)) Substance P and the prepared Type II crystalline form of (2R,4S)-1-{N-(3,5-bistrifluoromethylbenzyl)-N-methyl}aminocarbonyl-2-(4-fluoro-2-methylphenyl)-4-(2-hydroxyethylaminocarboxyloxy)-piperidine in 0.5 ml of 50 mM Tris-HCl (pH 7.4, 25° C.) containing 150 mM NaCl, 3 mM MnCl2, 40 μg/ml bacitracin, 4 μg/ml Leupeptin, 4 μg/ml Chymostatin, 4 μg/ml Phosphoramidon and 0.02% bovine serum albumin at room temperature for 60 minutes according to the method described in European Journal of Pharmacology, vol. 254, pp. 221-227 (1994). The reaction mixture was subjected to suction filtration with a GF/C glass filter which had previously been treated with 0.3% polyethyleneimine, washed with 0.3 ml of ice-cold reaction buffer containing no bovine serum albumin and various kinds of protein decomposition enzyme inhibitors twice, and radioactivity (dpm) on the filter was measured by a liquid scintillation counter. A specific binding amount was obtained by subtracting non-specific binding amount (L-703606 (10 μM) having NK1 receptor antagonistic action) from a total binding amount.

Data set [2] can be described thus: Stability at 40° C./75% RH in a glass bottle with an open state for 4 weeks. The class given is physicochemical. The procedure:
Stabilities of crystalline forms of Type I, Type II and Type VII, and amorphous of (2R,4S)-1-{N-(3,5-bistri-fluoromethylbenzyl)-N-methyl}aminocarbonyl-2-(4-fluoro-2-methylphenyl)-4-(2-hydroxyethylaminocarboxyloxy)piperidine were observed under the conditions of at 40° C./75% RH in a glass bottle with an open state for 4 weeks. […] Accordingly, improvement in stability according to crystallization could be confirmed.

Data set [3] is described as follows: Hygroscopicity by Dynamic Vapor Sorption. It is filed as physicochemical. The conditions noted are these: DVS-1, 25° C., relative humidity range 0 to 90%, 10 mg. The procedure:
With regard to Type I and Type II crystalline forms of (2R,4S)-1-{N-(3,5-bistrifluoromethylbenzyl)-N-methyl}-aminocarbonyl-2-(4-fluoro-2-methylphenyl)-4-(2-hydroxy-ethylaminocarboxyloxy)piperidine, hygroscopicity was measured according to the following mentioned conditions.
Device: Dynamic Vapor Sorption device DVS-1 manufactured by Surface Measurement Systems, UK Amount of specimen: 10 mg Measured temperature: 25° C. Relative humidity range: 0 to 90% Experimental example 1 Neurokinin-1 (NK1) receptor binding inhibitory action Human lymphoblastoma IM-9 cells (5 10^6 cell/tube) were reacted with 0.3 nM [^3H] […] The reaction mixture was subjected to suction filtration with a GF/C glass filter which had previously been treated with 0.3% polyethyleneimine, washed with 0.3 ml of ice-cold reaction buffer containing no bovine serum albumin and various kinds of protein decomposition enzyme inhibitors twice, and radioactivity (dpm) on the filter was measured by a liquid scintillation counter. […]

“Also recorded” adds a separate entry of the source.

T1 sequence (P25103 whole entry): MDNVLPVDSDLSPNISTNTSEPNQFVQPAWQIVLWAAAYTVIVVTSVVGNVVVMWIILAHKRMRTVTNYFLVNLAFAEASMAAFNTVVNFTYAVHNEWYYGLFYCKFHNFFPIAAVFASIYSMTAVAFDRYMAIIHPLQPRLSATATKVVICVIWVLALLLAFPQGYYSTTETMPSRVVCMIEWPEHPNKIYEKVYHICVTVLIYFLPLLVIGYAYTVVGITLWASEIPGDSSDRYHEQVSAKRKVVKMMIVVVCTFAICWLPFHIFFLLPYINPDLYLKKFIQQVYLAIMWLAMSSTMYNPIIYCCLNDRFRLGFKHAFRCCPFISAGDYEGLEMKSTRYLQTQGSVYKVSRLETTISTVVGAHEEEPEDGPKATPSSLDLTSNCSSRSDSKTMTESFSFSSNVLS

Take `Cc1cc(F)ccc1[C@H]1C[C@@H](OC(=O)NCCO)CCN1C(=O)N(C)Cc1cc(C(F)(F)F)cc(C(F)(F)F)c1` [Type II, (2R,4S)-1-{N-(3,5-bistrifluoromethylbenzyl)-N-methyl}aminocarbonyl-2-(4-fluoro-2-methylphenyl)-4-(2-hydroxyethylaminocarbonyloxy)piperidine]: the IC50 in data set [1] (Human lymphoblastoma IM-9 cells, 0.3 nM [3H](Sar9, Met11(O2)) Substance P, room temperature 60 minutes, read-out: IC50 value, NK1 receptor binding inhibition) came out at 4.59 nM. Also, in data set [1] (Human lymphoblastoma IM-9 cells, 0.3 nM [3H](Sar9, Met11(O2)) Substance P, room temperature 60 minutes, read-out: Ki value, NK1 receptor binding inhibition), the Ki is 2.22 nM. Besides, the “neurokinin-1 receptor binding action (in words)” value in data set [1] (human NK1 receptor, IM-9 cells) was “inhibited said Substance P with concentration-dependently; also recorded: showed a human neurokinin-1 receptor binding action with concentration-dependently”. Besides, the change in appearance entry in data set [2] is given as “no change in appearance”. In data set [3], the “hygroscopicity (change in weight under high humidity conditions)” value is “no hygroscopicity”.
As to `Cc1cc(F)ccc1[C@H]1C[C@@H](OC(=O)NCCO)CCN1C(=O)N(C)Cc1cc(C(F)(F)F)cc(C(F)(F)F)c1` [Type I, (2R,4S)-1-{N-(3,5-bistrifluoromethylbenzyl)-N-methyl}aminocarbonyl-2-(4-fluoro-2-methylphenyl)-4-(2-hydroxyethylaminocarbonyloxy)piperidine], the change in appearance result in data set [2] is on record as “no change in appearance”. The “hygroscopicity (change in weight under high humidity conditions)” value in data set [3] was “no hygroscopicity”.
Take `Cc1cc(F)ccc1[C@H]1C[C@@H](OC(=O)NCCO)CCN1C(=O)N(C)Cc1cc(C(F)(F)F)cc(C(F)(F)F)c1` [amorphous, (2R,4S)-1-{N-(3,5-bistrifluoromethylbenzyl)-N-methyl}aminocarbonyl-2-(4-fluoro-2-methylphenyl)-4-(2-hydroxyethylaminocarbonyloxy)piperidine]: in data set [2], the change in appearance result is “marked change in appearance (white powder→white lump)” and the moisture absorption entry is given as “moisture absorption was admitted”.
For the molecule `Cc1cc(F)ccc1[C@H]1C[C@@H](OC(=O)NCCO)CCN1C(=O)N(C)Cc1cc(C(F)(F)F)cc(C(F)(F)F)c1` [Type VII, (2R,4S)-1-{N-(3,5-bistrifluoromethylbenzyl)-N-methyl}aminocarbonyl-2-(4-fluoro-2-methylphenyl)-4-(2-hydroxyethylaminocarbonyloxy)piperidine], the change in appearance entry in data set [2] is recorded as “no change in appearance”.
